Measurements taken from ChEMBL document CHEMBL4823254, “Tetrahydroquinoline-Capped Histone Deacetylase 6 Inhibitor SW-101 Ameliorates Pathological Phenotypes in a Charcot-Marie-Tooth Type 2A Mouse Model” (J Med Chem, 2021).
The source made the active and inactive calls. The rule behind the calls is not given here.

Experiments:
Histone deacetylase 11 = biological target: T1, Histone deacetylase 11 (Homo sapiens, UniProt Q96DB2); assay: Inhibition of recombinant human HDAC11 expressed in HEK293T/17 cells using Boc-Lys(TFA)-AMC as substrate preincubated for 10 mins followed by substrate addition and measured after 30 mins by fluorescence-based assay
T1 sequence (Q96DB2 whole entry): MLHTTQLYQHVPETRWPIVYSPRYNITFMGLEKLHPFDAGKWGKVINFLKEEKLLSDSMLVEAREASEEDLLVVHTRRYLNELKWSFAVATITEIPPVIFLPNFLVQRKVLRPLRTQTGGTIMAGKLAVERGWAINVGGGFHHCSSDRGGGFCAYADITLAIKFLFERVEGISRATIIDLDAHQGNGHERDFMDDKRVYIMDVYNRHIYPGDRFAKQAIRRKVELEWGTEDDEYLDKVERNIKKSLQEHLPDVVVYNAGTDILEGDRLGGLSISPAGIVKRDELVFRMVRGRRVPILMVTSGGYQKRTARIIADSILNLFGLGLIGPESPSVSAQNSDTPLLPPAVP

[1] = Genotoxicity in Salmonella typhimurium TA1535 at 5 to 100 uM in absence of liver S9 fraction by Ames test; assay type: toxicity; conditions: salmonella enterica subsp. enterica serovar typhimurium, s9, 100 µM; dose 5-100 µM
[2] = Protein binding in human plasma; assay type: ADME, cell-free; conditions: read-out: PPB (converted)
[3] = Total AUC (0 to infinity) in C57BL/6J mouse plasma at 15 mg/kg, ip; assay type: ADME, organism-based; set-up: route intraperitoneal, time AUCmax, dose 15 mg/kg
[4] = Half life in C57BL/6J mouse plasma at 15 mg/kg, ip; assay type: ADME, organism-based
[5] = Cmax in C57BL/6J mouse brain at 15 mg/kg, ip; assay type: ADME, organism-based; set-up: route intraperitoneal, dose 15 mg/kg
Mus musculus [6] = assay: Neuroprotective activity in hMFN2-induced CMT2A transgenic mouse model assessed as increase in motor performance at 20 mg/kg, ip qd by rotarod test; assay type: functional, organism-based
Mus musculus [7] = assay: Neuroprotective activity in hMFN2-induced CMT2A transgenic mouse model assessed as increase in motor performance at 20 mg/kg, ip qd administered for 26 weeks when treated prior with compound dissolved in PBS/PEG400/Tween80/EtOH (50/35/10/5) wt% as vehicle by rotarod test; assay type: functional, organism-based
Mus musculus [8] = assay: Neuroprotective activity in hMFN2-induced CMT2A transgenic mouse model assessed as increase in paw withdrawal latency at 20 mg/kg, ip qd by von Frey test; assay type: functional, organism-based
[9] = biological target: T2, Protein deacetylase HDAC6 (Homo sapiens, UniProt Q9UBN7)
T2 sequence (Q9UBN7 whole entry): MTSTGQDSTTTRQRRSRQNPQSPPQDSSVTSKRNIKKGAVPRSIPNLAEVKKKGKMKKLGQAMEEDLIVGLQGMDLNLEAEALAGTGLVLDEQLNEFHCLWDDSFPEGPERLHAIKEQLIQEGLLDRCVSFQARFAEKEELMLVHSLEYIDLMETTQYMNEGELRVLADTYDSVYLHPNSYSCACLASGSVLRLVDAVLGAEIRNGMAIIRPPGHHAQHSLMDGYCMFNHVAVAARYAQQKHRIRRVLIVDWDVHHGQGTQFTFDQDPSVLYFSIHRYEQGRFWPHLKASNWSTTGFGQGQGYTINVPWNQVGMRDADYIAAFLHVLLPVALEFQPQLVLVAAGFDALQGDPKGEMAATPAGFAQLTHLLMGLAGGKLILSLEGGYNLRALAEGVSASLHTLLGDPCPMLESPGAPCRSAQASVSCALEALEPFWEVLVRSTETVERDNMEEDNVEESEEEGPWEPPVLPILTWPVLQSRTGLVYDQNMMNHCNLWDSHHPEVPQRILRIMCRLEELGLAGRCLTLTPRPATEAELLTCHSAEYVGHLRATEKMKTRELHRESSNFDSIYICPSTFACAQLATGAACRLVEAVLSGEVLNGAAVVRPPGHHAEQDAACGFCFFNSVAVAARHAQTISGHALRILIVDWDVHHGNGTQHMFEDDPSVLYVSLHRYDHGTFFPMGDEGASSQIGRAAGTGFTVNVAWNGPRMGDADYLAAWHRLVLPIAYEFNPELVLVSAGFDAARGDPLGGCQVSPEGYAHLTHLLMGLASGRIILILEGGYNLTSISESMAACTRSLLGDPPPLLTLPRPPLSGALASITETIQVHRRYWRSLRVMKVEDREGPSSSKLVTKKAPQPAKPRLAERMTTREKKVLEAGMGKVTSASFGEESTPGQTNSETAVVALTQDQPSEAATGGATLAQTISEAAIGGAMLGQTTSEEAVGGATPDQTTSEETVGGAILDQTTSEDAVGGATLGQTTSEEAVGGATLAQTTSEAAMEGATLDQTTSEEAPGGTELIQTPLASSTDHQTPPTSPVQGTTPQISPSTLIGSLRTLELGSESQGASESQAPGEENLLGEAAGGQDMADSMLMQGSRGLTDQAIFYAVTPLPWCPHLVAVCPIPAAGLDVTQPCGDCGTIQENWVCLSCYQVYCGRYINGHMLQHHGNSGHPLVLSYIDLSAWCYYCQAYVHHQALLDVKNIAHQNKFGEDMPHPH
Description: Inhibition of Nanoluc-fused HDAC6 CD2 (unknown origin) expressed in HEK293 cells incubated for 2 hrs by NANOBRET assay

IC50 (Histone deacetylase 11): 5.31 µM | fraction unbound [2]: 0.142 | AUC(0-inf) [3]: 1750 ng·h/mL | half-life [4]: 26.4 min | Cmax [5]: 223 ng/mL | IC50 [9]: 1.37 µM
SMILES: NC(=O)c1ccc2c(c1)CCCN2Cc1ccc(C(=O)NO)cc1
Activity [1]: Non-Toxic | Activity (Mus musculus [6]): Active | Activity (Mus musculus [7]): Active | Activity (Mus musculus [8]): Active
